Measurements taken from patent US20220348567A1, “NOVEL OXADIAZOLE COMPOUNDS CONTAINING 5- MEMBERED HETEROAROMATIC RING FOR CONTROLLING OR PREVENTING PHYTOPATHOGENIC FUNGI” (PI INDUSTRIES LTD., priority 2019, published 2022).

How the values were obtained:
Phakopsora pachyrhizi = Phakopsora pachyrhizi test in soybean, greenhouse, preventive activity; assay type: in vivo, Phakopsora pachyrhizi on soybean plants; conditions: 24 h, spray one day before inoculation, soybean plants, read-out: control (efficacy, disease severity rating versus untreated control)
Procedure: Compounds were dissolved in 2% dimethyl sulfoxide/acetone and then mixed with water containing emulsifier to the calibrated spray volume of 50 mL. Each spray solution was poured into a spray bottle for further application. To test the preventive activity of the compound, healthy young Soybean plants, raised in the greenhouse, were sprayed with the active compound preparation at the stated application rate inside the spray cabinets using hollow cone nozzles. One day aftertreatment, the plants were inoculated with a conidial suspension containing 2×10^5Phakopsora […]. The inoculated plants were then kept in a greenhouse chamber at 22-24° C. temperature and 80-90% relative humidity for disease expression. A visual assessment of the compound's performance was carried out by rating the disease severity (0-100% scale) on treated plants 3, 7, 10 and 15 days after application. Efficacy (% control) of the compound was calculated by comparing the disease rating in the treatment with the one of the untreated control. The sprayed plants were also assessed for plant damage by recording symptoms like necrosis, chlorosis and stunting.

Parastagonospora nodorum = Parastagonospora nodorum (PARANO) microtiter growth inhibition assay, OD600; assay type: cell-based; conditions: 18° C., 15-18 days, read-out: control (growth inhibition by OD600)
Procedure: Potato dextrose (PDB) liquid medium (Difco) containing a […] (10^5 spores/ml) spore suspension was prepared. For the inhibition assay, each test compound was solved in dimethyl sulfoxide. 100 μl of the test media-solution was added to a 96-well microtiter plate, consequently, the same volume (100 μl) of spore suspension was added to the well making the final test concentrations and the plate was incubated at 18° C. for 15-18 days. The growth inhibition was evaluated by measuring the OD600. Percent inhibition was calculated with the below formula: I=([…])*100 Where T=treatment, C═control, and B=blank

Row | Compound | pest or weed control at 500 ppm (Phakopsora pachyrhizi) [%] | inhibition at 300 ppm (Parastagonospora nodorum) [%]
1 | COc1ccc(NC(=O)Cc2cn(-c3ccc(-c4noc(C(F)(F)F)n4)cc3)cn2)cc1 [Compound 2, N-(4-methoxyphenyl)-2-(1-(4-(5-(trifluoromethyl)-1,2,4-oxadiazol-3-yl)phenyl)-1H-imidazol-4-yl)acetamide] | ≤ 70 | –
2 | O=C(Cc1cn(-c2ccc(-c3noc(C(F)(F)F)n3)cc2)cn1)Nc1ccc(Cl)cc1 [Compound 9, N-(4-chlorophenyl)-2-(1-(4-(5-(trifluoromethyl)-1,2,4-oxadiazol-3-yl)phenyl)-1H-imidazol-4-yl)acetamide] | ≤ 70 | –
3 | O=C(Cc1cn(-c2ccc(-c3noc(C(F)(F)F)n3)cc2)cn1)N1CCCCC1 [Compound 11, 1-(piperidin-1-yl)-2-(1-(4-(5-(trifluoromethyl)-1,2,4-oxadiazol-3-yl)phenyl)-1H-imidazol-4-yl)ethan-1-one] | ≤ 70 | –
4 | COc1ccnc(S(C)(=O)=NC(=O)c2ccn(-c3ccc(-c4noc(C(F)(F)F)n4)cc3)c2)c1 (centres unmarked) [Compound 29, N-((4-methoxypyridin-2-yl)(methyl)(oxo)-λ^6-sulfanylidene)-1-(4-(5-(trifluoromethyl)-1,2,4-oxadiazol-3-yl)phenyl)-1H-pyrrole-3-carboxamide] | ≤ 70 | ≥ 70
5 | Cc1ccccc1S(C)(=O)=NC(=O)c1cnn(-c2ccc(-c3noc(C(F)(F)F)n3)cc2)c1 (centres unmarked) [Compound 19, N-(methyl(oxo)(o-tolyl)-λ^6-sulfaneylidene)-1-(4-(5-(trifluoromethyl)-1,2,4-oxadiazol-3-yl)phenyl)-1H-pyrazole-4-carboxamide] | ≤ 70 | –
6 | O=C(Cc1cn(-c2ccc(-c3noc(C(F)(F)F)n3)cc2)cn1)NCc1ccccc1F [Compound 7, N-(2-fluorobenzyl)-2-(1-(4-(5-(trifluoromethyl)-1,2,4-oxadiazol-3-yl)phenyl)-1H-imidazol-4-yl)acetamide] | ≤ 70 | –
7 | CS(C)(=O)=NC(=O)c1ccn(-c2ccc(-c3noc(C(F)(F)F)n3)cc2)c1 [Compound 30, N-(dimethyl(oxo)-λ^6-sulfanylidene)-1-(4-(5-(trifluoromethyl)-1,2,4-oxadiazol-3-yl)phenyl)-1H-pyrrole-3-carboxamide] | ≤ 70 | ≥ 70
8 | CS(=O)(=NC(=O)c1ccn(-c2ccc(-c3noc(C(F)(F)F)n3)cc2)c1)c1ccc(F)cc1 (centres unmarked) [Compound 27, N-((4-fluorophenyl)(methyl)(oxo)-λ^6-sulfanylidene)-1-(4-(5-(trifluoromethyl)-1,2,4-oxadiazol-3-yl)phenyl)-1H-pyrrole-3-carboxamide] | ≤ 70 | –
9 | FC(F)(F)c1nc(-c2ccc(-n3cnc(CSc4ccccc4)c3)cc2)no1 [Compound 43, 3-(4-(4-((phenylthio)methyl)-1H-imidazol-1-yl)phenyl)-5-(trifluoromethyl)-1,2,4-oxadiazole] | – | ≥ 70
10 | Cc1cccc(S(C)(=O)=NC(=O)c2ccn(-c3ccc(-c4noc(C(F)(F)F)n4)cc3)c2)c1 (centres unmarked) [Compound 24, N-(methyl(oxo)(m-tolyl)-λ^6-sulfanylidene)-1-(4-(5-(trifluoromethyl)-1,2,4-oxadiazol-3-yl)phenyl)-1H-pyrrole-3-carboxamide] | – | ≥ 70
11 | O=C(Cc1cn(-c2ccc(-c3noc(C(F)(F)F)n3)cc2)cn1)N1CCCC1 [Compound 3, 1-(pyrrolidin-1-yl)-2-(1-(4-(5-(trifluoromethyl)-1,2,4-oxadiazol-3-yl)phenyl)-1H-imidazol-4-yl)ethan-1-one] | ≤ 70 | ≥ 70
12 | COc1ccccc1S(C)(=O)=NC(=O)c1cnn(-c2ccc(-c3noc(C(F)(F)F)n3)cc2)c1 (centres unmarked) [Compound 20, N-((2-methoxyphenyl)(methyl)(oxo)-λ^6-sulfaneylidene)-1-(4-(5-(trifluoromethyl)-1,2,4-oxadiazol-3-yl)phenyl)-1H-pyrazole-4-carboxamide] | ≤ 70 | –
13 | O=C(Cc1cn(-c2ccc(-c3noc(C(F)(F)F)n3)cc2)cn1)NCc1ccccc1 [Compound 4, N-benzyl-2-(1-(4-(5-(trifluoromethyl)-1,2,4-oxadiazol-3-yl)phenyl)-1H-imidazol-4-yl)acetamide] | ≤ 70 | –
14 | COCCS(=O)(=NC(=O)c1ccn(-c2ccc(-c3noc(C(F)(F)F)n3)cc2)c1)c1ccccn1 (centres unmarked) [Compound 25, N-((2-methoxyethyl)(oxo)(pyridin-2-yl)-λ^6-sulfanylidene)-1-(4-(5-(trifluoromethyl)-1,2,4-oxadiazol-3-yl)phenyl)-1H-pyrrole-3-carboxamide] | ≤ 70 | –
15 | COc1ccc(C)c(NC(=O)Cc2cn(-c3ccc(-c4noc(C(F)(F)F)n4)cc3)cn2)c1 [Compound 16, N-(5-methoxy-2-methylphenyl)-2-(1-(4-(5-(trifluoromethyl)-1,2,4-oxadiazol-3-yl)phenyl)-1H-imidazol-4-yl)acetamide] | ≤ 70 | ≥ 70
16 | O=C(Cc1cn(-c2ccc(-c3noc(C(F)(F)F)n3)cc2)cn1)Nc1cccc(F)c1 [Compound 10, N-(3-fluorophenyl)-2-(1-(4-(5-(trifluoromethyl)-1,2,4-oxadiazol-3-yl)phenyl)-1H-imidazol-4-yl)acetamide] | ≤ 70 | –
17 | O=C(Cc1cn(-c2ccc(-c3noc(C(F)(F)F)n3)cc2)cn1)Nc1ccccc1Br [Compound 14, N-(2-bromophenyl)-2-(1-(4-(5-(trifluoromethyl)-1,2,4-oxadiazol-3-yl)phenyl)-1H-imidazol-4-yl)acetamide] | ≤ 70 | –
18 | COc1cc(F)ccc1NC(=O)Cc1cn(-c2ccc(-c3noc(C(F)(F)F)n3)cc2)cn1 [Compound 17, N-(4-fluoro-2-methoxyphenyl)-2-(1-(4-(5-(trifluoromethyl)-1,2,4-oxadiazol-3-yl)phenyl)-1H-imidazol-4-yl)acetamide] | ≤ 70 | ≥ 70
19 | Cc1ccc(NC(=O)Cc2cn(-c3ccc(-c4noc(C(F)(F)F)n4)cc3)cn2)cc1 [Compound 8, N-(p-tolyl)-2-(1-(4-(5-(trifluoromethyl)-1,2,4-oxadiazol-3-yl)phenyl)-1H-imidazol-4-yl)acetamide] | ≤ 70 | –
20 | CCOC(=O)Cc1cn(-c2ccc(-c3noc(C(F)(F)F)n3)cc2)cn1 [Compound 1, Ethyl 2-(1-(4-(5-(trifluoromethyl)-1,2,4-oxadiazol-3-yl)phenyl)-1H-imidazol-4-yl)acetate] | ≤ 70 | –
21 | O=C(Cc1cn(-c2ccc(-c3noc(C(F)(F)F)n3)cc2)cn1)Nc1cccnc1 [Compound 13, N-(pyridin-3-yl)-2-(1-(4-(5-(trifluoromethyl)-1,2,4-oxadiazol-3-yl)phenyl)-1H-imidazol-4-yl)acetamide] | ≤ 70 | –
22 | CS(=O)(=NC(=O)c1cnn(-c2ccc(-c3noc(C(F)(F)F)n3)cc2)c1)c1ccccc1 (centres unmarked) [Compound 22, N-(methyl(oxo)(phenyl)-λ^6-sulfaneylidene)-1-(4-(5-(trifluoromethyl)-1,2,4-oxadiazol-3-yl)phenyl)-1H-pyrazole-4-carboxamide] | ≤ 70 | –
23 | O=C(Cc1cn(-c2ccc(-c3noc(C(F)(F)F)n3)cc2)cn1)NCc1ccc(F)cc1 [Compound 6, N-(4-fluorobenzyl)-2-(1-(4-(5-(trifluoromethyl)-1,2,4-oxadiazol-3-yl)phenyl)-1H-imidazol-4-yl)acetamide] | ≤ 70 | ≥ 70
24 | COc1ccc(CNC(=O)Cc2cn(-c3ccc(-c4noc(C(F)(F)F)n4)cc3)cn2)cc1 [Compound 5, N-(4-methoxybenzyl)-2-(1-(4-(5-(trifluoromethyl)-1,2,4-oxadiazol-3-yl)phenyl)-1H-imidazol-4-yl)acetamide] | ≤ 70 | –
25 | CS(=O)(=NC(=O)c1cnn(-c2ccc(-c3noc(C(F)(F)F)n3)cc2)c1)c1cccc(F)c1 (centres unmarked) [Compound 23, N-((3-fluorophenyl)(methyl)(oxo)-λ^6-sulfanylidene)-1-(4-(5-(trifluoromethyl)-1,2,4-oxadiazol-3-yl)phenyl)-1H-pyrazole-4-carboxamide] | ≤ 70 | –
26 | COc1cccc(NC(=O)Cc2cn(-c3ccc(-c4noc(C(F)(F)F)n4)cc3)cn2)c1 [Compound 12, N-(3-methoxyphenyl)-2-(1-(4-(5-(trifluoromethyl)-1,2,4-oxadiazol-3-yl)phenyl)-1H-imidazol-4-yl)acetamide] | ≤ 70 | –
27 | O=C(Cc1cn(-c2ccc(-c3noc(C(F)(F)F)n3)cc2)cn1)Nc1ccccc1 [Compound 15, N-phenyl-2-(1-(4-(5-(trifluoromethyl)-1,2,4-oxadiazol-3-yl)phenyl)-1H-imidazol-4-yl)acetamide] | ≤ 70 | ≥ 70
28 | COc1ccc(S(C)(=O)=NC(=O)c2cnn(-c3ccc(-c4noc(C(F)(F)F)n4)cc3)c2)cc1 (centres unmarked) [Compound 21, N-((4-methoxyphenyl)(methyl)(oxo)-λ^6-sulfaneylidene)-1-(4-(5-(trifluoromethyl)-1,2,4-oxadiazol-3-yl)phenyl)-1H-pyrazole-4-carboxamide] | ≤ 70 | –
